Laboratory results as given in patent US20140243302A1, “BRIDGED BICYCLIC COMPOUNDS FOR THE TREATMENT OF BACTERIAL INFECTIONS” (priority 2011, published 2014).
≈ marks a conversion by molar mass, not a printed value.

System: Staphylococcus aureus Smith
Assay: MIC assay, modified agar dilution (CLSI), S. aureus Smith
Assay type: cell-based
Conditions: Staphylococcus aureus, agar dilution, 35° C., 16-20 hr; lowest concentration that completely inhibited growth; read-out: S_aureus_Smith_WT_MIC
Summary of the method: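 Agar dilution per CLSI on Mueller Hinton agar (plus 5% horse blood for S. pneumoniae and E. faecium), compound 128 to 0.001 μg/mL in two-fold steps. Spots of ~1×10^4 CFU incubated at 35 °C for 16-20 hr before MIC scoring.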

## N[C@H]1C(=O)N[C@@H]1COc1ccc2ncc(F)c(CCC34CCC(NCc5ccc6c(n5)NC(=O)CO6)(CC3)CO4)c2n1 [Example 164, 6-((1-(2-(6-(((2S,3R)-3-Amino-4-oxoazetidin-2-yl)methoxy)-3-fluoro-1,5-naphthyridin-4-yl)ethyl)-2-oxabicyclo[2.2.2]octan-4-ylamino)methyl)-2H-pyrido[3,2-b][1,4]oxazin-3(4H)-one]
  MIC: 0.5 µg/mL (≈ 0.866 µM)

## NCC(O)COc1ccc2ncc(F)c(CCC34CCC(NCc5ccc6c(n5)NC(=O)CO6)(CC3)CO4)c2n1 (stereo not shown) [Example 165, 6-{[(1-{2-[6-(3-Amino-2-hydroxypropoxy)-3-fluoro-1,5-naphthyridin-4-yl]ethyl}-2-oxabicyclo[2.2.2]oct-4-yl)amino]methyl}-2H-pyrido[3,2-b][1,4]oxazin-3(4H)-one]
  MIC: 2 µg/mL (≈ 3.62 µM)

## O=C1COc2ccc(CNC34CCC(CCc5c(F)cnc6ccc(OC7CC(O)CC(O)C7)nc56)(CC3)OC4)nc2N1 (stereo not shown) [Example 166, 6-({[1-(2-{6-[(3,5-Dihydroxycyclohexyl)oxy]-3-fluoro-1,5-naphthyridin-4-yl}ethyl)-2-oxabicyclo[2.2.2]oct-4-yl]amino}methyl)-2H-pyrido[3,2-b][1,4]oxazin-3(4H)-one]
  MIC: 0.5 µg/mL (≈ 0.842 µM)

## COc1ccc2ncc(F)c(CC(OCCO)C34CCC(NCc5ccc6c(n5)NC(=O)CO6)(CC3)CO4)c2n1 (stereo not shown) [Example 167, 6-[({1-[2-(3-Fluoro-6-methoxy-1,5-naphthyridin-4-yl)-1-(2-hydroxyethoxy)ethyl]-2-oxabicyclo[2.2.2]oct-4-yl}amino)methyl]-2H-pyrido[3,2-b][1,4]oxazin-3(4H)-one]
  MIC: 2 µg/mL (≈ 3.61 µM)

## COC(=O)N(Cc1ccc2c(n1)NC(=O)CO2)C12CCC(CCc3c(F)cnc4ccc(OC)nc34)(CC1)OC2 [Example 168, Methyl {1-[2-(3-Fluoro-6-methoxy-1,5-naphthyridin-4-yl)ethyl]-2-oxabicyclo[2.2.2]oct-4-yl}[(3-oxo-3,4-dihydro-2H-pyrido[3,2-b][1,4]oxazin-6-yl)methyl]carbamate]
  MIC: 16 µg/mL (≈ 29 µM)

## O=C1COc2ccc(CNC34CCC(CCc5c(F)cnc6ccc(OC[C@H]7C[C@@H](O)[C@@H](O)C7)nc56)(CC3)OC4)nc2N1 [Example 169, 6-((1-(2-(6-(((1r,3R,4S)-3,4-Dihydroxycyclopentyl)methoxy)-3-fluoro-1,5-naphthyridin-4-yl)ethyl)-2-oxabicyclo[2.2.2]octan-4-ylamino)methyl)-2H-pyrido[3,2-b][1,4]oxazin-3(4H)-one]
  MIC: 0.063 µg/mL (≈ 0.106 µM)

## O=C1COc2ccc(CNC34CCC(CCc5c(F)cnc6ccc(OCC7(O)COC7)nc56)(CC3)OC4)nc2N1 [Example 170, 6-((1-(2-(3-Fluoro-6-((3-hydroxyoxetan-3-yl)methoxy)-1,5-naphthyridin-4-yl)ethyl)-2-oxabicyclo[2.2.2]octan-4-ylamino)methyl)-2H-pyrido[3,2-b][1,4]oxazin-3(4H)-one]
  MIC: 0.125 µg/mL (≈ 0.221 µM)

## Cl.O=C1COc2ccc(CNC34CCC(C(O)Cc5c(F)cnc6ccc(OCCO)nc56)(CC3)OC4)nc2N1 (stereo not shown) [Example 171, 6-((1-(2-(3-Fluoro-6-(2-hydroxyethoxy)-1,5-naphthyridin-4-yl)-1-hydroxyethyl)-2-oxabicyclo[2.2.2]octan-4-ylamino)methyl)-2H-pyrido[3,2-b][1,4]oxazin-3(4H)-one Hydrochloride]
  MIC: 0.125 µg/mL

## COc1ccc2ncc(F)c(CC(O)C34CCC(NCc5ccc6c(c5)OCCO6)(CC3)CO4)c2n1 (stereo not shown) [Example 172, 1-{4-[(2,3-Dihydro-1,4-benzodioxin-6-ylmethyl)amino]-2-oxabicyclo[2.2.2]oct-1-yl}-2-(3-fluoro-6-methoxy-1,5-naphthyridin-4-yl)ethanol]
  MIC: 0.031 µg/mL (≈ 0.0626 µM)

## COc1ccc2ncc(F)c(CC(O)C34CCC(NC(=O)c5ccc(C)c(F)c5)(CC3)CO4)c2n1 (stereo not shown) [Example 173, 3-Fluoro-N-{1-[2-(3-fluoro-6-methoxy-1,5-naphthyridin-4-yl)-1-hydroxyethyl]-2-oxabicyclo[2.2.2]oct-4-yl}-4-methylbenzamide]
  MIC: 0.125 µg/mL (≈ 0.259 µM)

## COc1nc2c(CCC34CCC(NCc5ccc6c(n5)NC(=O)CO6)(CC3)CO4)c(F)cnc2cc1F [Example 174, 6-[({1-[2-(3,7-Difluoro-6-methoxy-1,5-naphthyridin-4-yl)ethyl]-2-oxabicyclo[2.2.2]oct-4-yl}amino)methyl]-2H-pyrido[3,2-b][1,4]oxazin-3(4H)-one]
  MIC: 0.031 µg/mL (≈ 0.0606 µM)

## CC(C)(O)CCOc1ccc2ncc(F)c(CCC34CCC(NCc5ccc6c(n5)NC(=O)CO6)(CC3)CO4)c2n1 [Example 175, 6-{[(1-{2-[3-Fluoro-6-(3-hydroxy-3-methylbutoxy)-1,5-naphthyridin-4-yl]ethyl}-2-oxabicyclo[2.2.2]oct-4-yl)amino]methyl}-2H-pyrido[3,2-b][1,4]oxazin-3(4H)-one]
  MIC: 1 µg/mL (≈ 1.77 µM)

## COc1ccc2ncc(F)c(CCC34CCC(N(C)Cc5ccc6c(n5)NC(=O)CO6)(CC3)CO4)c2n1 [Example 176, 6-{[{1-[2-(3-Fluoro-6-methoxy-1,5-naphthyridin-4-yl)ethyl]-2-oxabicyclo[2.2.2]oct-4-yl}(methyl)amino]methyl}-2H-pyrido[3,2-b][1,4]oxazin-3(4H)-one]
  MIC: 0.125 µg/mL (≈ 0.246 µM)

## COc1ccc2ncc(F)c(CCC34CCC(NCc5cc6c(nn5)OCC(=O)N6)(CC3)CO4)c2n1 [Example 177, 3-[({1-[2-(3-Fluoro-6-methoxy-1,5-naphthyridin-4-yl)ethyl]-2-oxabicyclo[2.2.2]oct-4-yl}amino)methyl]-5H-pyridazino [3,4-b][1,4]oxazin-6(7H)-one]
  MIC: 1 µg/mL (≈ 2.02 µM)

## COc1ccc2ncc(F)c(CCC34CCC(NCc5ccc6ncc(=O)[nH]c6n5)(CC3)CO4)c2n1 [Example 178, 6-[({1-[2-(3-Fluoro-6-methoxy-1,5-naphthyridin-4-yl)ethyl]-2-oxabicyclo[2.2.2]oct-4-yl}amino)methyl]pyrido[2,3-b]pyrazin-3(4H)-one]
  MIC: 0.063 µg/mL (≈ 0.128 µM)

## COc1ccc2ncc(F)c(CCC34CCC(NCc5cc6[nH]c(=O)cnc6cn5)(CC3)CO4)c2n1 [Example 179, 7-[({1-[2-(3-Fluoro-6-methoxy-1,5-naphthyridin-4-yl)ethyl]-2-oxabicyclo[2.2.2]oct-4-yl}amino)methyl]pyrido[3,4-b]pyrazin-2(1H)-one]
  MIC: 0.5 µg/mL (≈ 1.02 µM)

## N#Cc1ccc2ccc(=O)n(CCC34CCC(NCc5ccc6c(n5)NC(=O)CO6)(CC3)CO4)c2c1 [Example 180, 2-Oxo-1-[2-(4-{[(3-oxo-3,4-dihydro-2H-pyrido[3,2-b][1,4]oxazin-6-yl)methyl]amino}-2-oxabicyclo[2.2.2]oct-1-yl)ethyl]-1,2-dihydroquinoline-7-carbonitrile]
  MIC: 0.031 µg/mL (≈ 0.0638 µM)

## CC(O)CCOc1ccc2ncc(F)c(CCC34CCC(NCc5ccc6c(n5)NC(=O)CO6)(CC3)CO4)c2n1 (stereo not shown) [Example 181, 6-{[(1-{2-[3-Fluoro-6-(3-hydroxybutoxy)-1,5-naphthyridin-4-yl]ethyl}-2-oxabicyclo[2.2.2]oct-4-yl)amino]methyl}-2H-pyrido[3,2-b][1,4]oxazin-3(4H)-one]
  MIC: 0.125 µg/mL (≈ 0.227 µM)

## COc1ccc2ncc(F)c(CC(O)C34CCC(NCc5cc6[nH]c(=O)cnc6cn5)(CC3)CO4)c2n1 (stereo not shown) [Example 182, 7-[({1-[2-(3-Fluoro-6-methoxy-1,5-naphthyridin-4-yl)-1-hydroxyethyl]-2-oxabicyclo[2.2.2]oct-4-yl}amino)methyl]pyrido[3,4-b]pyrazin-2(1H)-one]
  MIC: 4 µg/mL (≈ 7.9 µM)
